Tested on: 966289-007-R4-J1-PDC complex spheroid viability
Experiment: Anticancer human tumor 966289-007-R4-J1-PDC patient-derived pancreatic adenocarcinoma cell line growth inhibition [RAS]
Settings: for IC50: curve of first compound; for viability, T/C: stronger effect = lower value; active = viability on the fitted dose curve at most 10% of control; inactive = the rest
Summary of the method: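 Agents were tested in combination matrices in half-log decrements from a top concentration at or near clinical Cmax (10 microM if undetermined). Targets were multi-cell spheroids of tumour lines plus HUVEC and MSC stromal cells.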

[1] = second compound 0.0316 µM, first compound 0.000949 µM
[2] = second compound 0.0316 µM, first compound 0.003 µM
[3] = second compound 0.0316 µM, first compound 0.00949 µM
[4] = second compound 0.0316 µM, first compound 0.03 µM
[5] = second compound 0.0316 µM, first compound 0.0949 µM
[6] = second compound 0.0316 µM, first compound 0.3 µM
[7] = second compound 0.1 µM, first compound 0.000949 µM
[8] = second compound 0.1 µM, first compound 0.003 µM
[9] = second compound 0.1 µM, first compound 0.00949 µM
[10] = second compound 0.1 µM, first compound 0.03 µM
[11] = second compound 0.1 µM, first compound 0.0949 µM
[12] = second compound 0.1 µM, first compound 0.3 µM
[13] = second compound 0.316 µM, first compound 0.000949 µM
[14] = second compound 0.316 µM, first compound 0.003 µM
[15] = second compound 0.316 µM, first compound 0.00949 µM
[16] = second compound 0.316 µM, first compound 0.03 µM
[17] = second compound 0.316 µM, first compound 0.0949 µM
[18] = second compound 0.316 µM, first compound 0.3 µM
[19] = second compound 1 µM, first compound 0.000949 µM
[20] = second compound 1 µM, first compound 0.003 µM
[21] = second compound 1 µM, first compound 0.00949 µM
[22] = second compound 1 µM, first compound 0.03 µM
[23] = second compound 1 µM, first compound 0.0949 µM
[24] = second compound 1 µM, first compound 0.3 µM
[25] = second compound 3.16 µM, first compound 0.000949 µM
[26] = second compound 3.16 µM, first compound 0.003 µM
[27] = second compound 3.16 µM, first compound 0.00949 µM
[28] = second compound 3.16 µM, first compound 0.03 µM
[29] = second compound 3.16 µM, first compound 0.0949 µM
[30] = second compound 3.16 µM, first compound 0.3 µM
[31] = second compound 10 µM, first compound 0.000949 µM
[32] = second compound 10 µM, first compound 0.003 µM
[33] = second compound 10 µM, first compound 0.00949 µM
[34] = second compound 10 µM, first compound 0.03 µM
[35] = second compound 10 µM, first compound 0.0949 µM
[36] = second compound 10 µM, first compound 0.3 µM
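Note: spheroids exposed to agents for one week before readout.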
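Throughout, for viability, T/C: percent viability relative to DMSO vehicle control wells as 100%.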

C=CC(=O)N1CCN(c2nc(OCC3CCCN3C)nc3c(F)c(-c4nc(N)cc(C)c4C(F)(F)F)c(Cl)cc23)C(C)C1 (stereo unspecified) + C#Cc1c(F)ccc2cc(O)cc(-c3ncc4c(N5CC6CCC(C5)N6)nc(OCC56CCCN5CC(F)C6)nc4c3F)c12
inactive: viability, T/C (second compound 0.0316 µM, first compound 0.00316 µM) 106% | viability, T/C (second compound 0.0316 µM, first compound 0.01 µM) 99.5% | viability, T/C (second compound 0.0316 µM, first compound 0.0316 µM) 88.7% | viability, T/C (second compound 0.0316 µM, first compound 0.1 µM) 98.2% | viability, T/C (second compound 0.0316 µM, first compound 0.316 µM) 108% | viability, T/C (second compound 0.0316 µM, first compound 1 µM) 91.5% | viability, T/C (second compound 0.1 µM, first compound 0.00316 µM) 108% | viability, T/C (second compound 0.1 µM, first compound 0.01 µM) 107% | viability, T/C (second compound 0.1 µM, first compound 0.0316 µM) 91.1% | viability, T/C (second compound 0.1 µM, first compound 0.1 µM) 95.9% | viability, T/C (second compound 0.1 µM, first compound 0.316 µM) 83.8% | viability, T/C (second compound 0.1 µM, first compound 1 µM) 83.3% | viability, T/C (second compound 0.316 µM, first compound 0.00316 µM) 105% | viability, T/C (second compound 0.316 µM, first compound 0.01 µM) 99.5% | viability, T/C (second compound 0.316 µM, first compound 0.0316 µM) 102% | viability, T/C (second compound 0.316 µM, first compound 0.1 µM) 99.7% | viability, T/C (second compound 0.316 µM, first compound 0.316 µM) 97% | viability, T/C (second compound 0.316 µM, first compound 1 µM) 80.7% | viability, T/C (second compound 1 µM, first compound 0.00316 µM) 97% | viability, T/C (second compound 1 µM, first compound 0.01 µM) 111% | viability, T/C (second compound 1 µM, first compound 0.0316 µM) 117% | viability, T/C (second compound 1 µM, first compound 0.1 µM) 103% | viability, T/C (second compound 1 µM, first compound 0.316 µM) 92.5% | viability, T/C (second compound 1 µM, first compound 1 µM) 96.8% | viability, T/C (second compound 3.16 µM, first compound 0.00316 µM) 96.9% | viability, T/C (second compound 3.16 µM, first compound 0.01 µM) 107% | viability, T/C (second compound 3.16 µM, first compound 0.0316 µM) 113% | viability, T/C (second compound 3.16 µM, first compound 0.1 µM) 102% | viability, T/C (second compound 3.16 µM, first compound 0.316 µM) 110% | viability, T/C (second compound 3.16 µM, first compound 1 µM) 92.7% | viability, T/C (second compound 10 µM, first compound 0.00316 µM) 118% | viability, T/C (second compound 10 µM, first compound 0.01 µM) 82.8% | viability, T/C (second compound 10 µM, first compound 0.0316 µM) 91.6% | viability, T/C (second compound 10 µM, first compound 0.1 µM) 96.4% | viability, T/C (second compound 10 µM, first compound 0.316 µM) 89.9% | viability, T/C (second compound 10 µM, first compound 1 µM) 92.2%
> 1000 nM: IC50 (second compound 0.0316 µM) | IC50 (second compound 0.1 µM) | IC50 (second compound 0.316 µM) | IC50 (second compound 1 µM) | IC50 (second compound 3.16 µM) | IC50 (second compound 10 µM)

CC1(C)CCC(Nc2ncc(C(F)(F)F)c(-c3c[nH]c4c(P(C)(C)=O)c(C#N)ccc34)n2)CN1 (stereo unspecified) + C#Cc1c(F)ccc2cc(O)cc(-c3ncc4c(N5CC6CCC(C5)N6)nc(OCC56CCCN5CC(F)C6)nc4c3F)c12
19.1 nM: IC50 (second compound 3.16 µM)
15.6 nM: IC50 (second compound 0.1 µM)
18.6 nM: IC50 (second compound 10 µM)
17 nM: IC50 (second compound 0.0316 µM)
19.6 nM: IC50 (second compound 1 µM)
inactive: viability, T/C [1] 113% | viability, T/C [2] 107% | viability, T/C [3] 80.6% | viability, T/C [4] 19.9% | viability, T/C [5] 15.4% | viability, T/C [6] 11.9% | viability, T/C [7] 107% | viability, T/C [8] 131% | viability, T/C [9] 76.4% | viability, T/C [10] 20.8% | viability, T/C [11] 13.4% | viability, T/C [12] 11.3% | viability, T/C [13] 102% | viability, T/C [14] 134% | viability, T/C [15] 90.3% | viability, T/C [16] 20.8% | viability, T/C [17] 13.9% | viability, T/C [18] 12.9% | viability, T/C [19] 106% | viability, T/C [20] 131% | viability, T/C [21] 89.3% | viability, T/C [22] 27.3% | viability, T/C [23] 13.8% | viability, T/C [24] 10.3% | viability, T/C [25] 115% | viability, T/C [26] 135% | viability, T/C [27] 91.7% | viability, T/C [28] 24.1% | viability, T/C [29] 12.2% | viability, T/C [30] 12.1% | viability, T/C [31] 101% | viability, T/C [32] 113% | viability, T/C [33] 89.8% | viability, T/C [34] 21.9% | viability, T/C [35] 15.1% | viability, T/C [36] 9.97%
18.3 nM: IC50 (second compound 0.316 µM)

CCc1c2c(nc3ccc(O)cc13)-c1cc3c(c(=O)n1C2)COC(=O)[C@]3(O)CC + C#Cc1c(F)ccc2cc(O)cc(-c3ncc4c(N5CC6CCC(C5)N6)nc(OCC56CCCN5CC(F)C6)nc4c3F)c12
1.44 nM: IC50 (second compound 1 µM)
1.43 nM: IC50 (second compound 0.316 µM)
1.4 nM: IC50 (second compound 10 µM)
active: viability, T/C [2] 2.5% | viability, T/C [3] 1.27% | viability, T/C [4] 0.94% | viability, T/C [5] 1.06% | viability, T/C [6] 1.14% | viability, T/C [8] 2.09% | viability, T/C [9] 0.95% | viability, T/C [10] 1.18% | viability, T/C [11] 0.87% | viability, T/C [12] 1.15% | viability, T/C [14] 2.19% | viability, T/C [15] 1.22% | viability, T/C [16] 1.04% | viability, T/C [17] 0.89% | viability, T/C [18] 1.23% | viability, T/C [20] 1.99% | viability, T/C [21] 1.31% | viability, T/C [22] 1.22% | viability, T/C [23] 1.16% | viability, T/C [24] 1.16% | viability, T/C [26] 2.82% | viability, T/C [27] 1.66% | viability, T/C [28] 1.34% | viability, T/C [29] 1.54% | viability, T/C [30] 1.55% | viability, T/C [32] 1.37% | viability, T/C [33] 1.04% | viability, T/C [34] 0.91% | viability, T/C [35] 0.84% | viability, T/C [36] 0.55%
1.59 nM: IC50 (second compound 0.0316 µM)
inactive: viability, T/C [1] 88.6% | viability, T/C [7] 81.8% | viability, T/C [13] 76.5% | viability, T/C [19] 77.1% | viability, T/C [25] 82.2% | viability, T/C [31] 75.1%
1.51 nM: IC50 (second compound 3.16 µM)
1.5 nM: IC50 (second compound 0.1 µM)
